Results as given in patent US20180370912A1, “COMPOUNDS AND METHODS FOR TREATING DISEASES MEDIATED BY PROTEIN DISULFIDE ISOMERASE” (Beth Israel Deaconess Medical Center, Inc., priority 2017, published 2018).
Bridge positions count the residues as written; N and C are the ends. Square brackets hold non-standard residues; d marks the D form. Peptide text beside a SMILES is read from it. * marks the point of attachment. Ileψ(thiazoline)Cys = CC[C@H](C)[C@H](N)C1=N[C@H](C(=O)*)CS1; dOrn = NCCC[C@@H](N)C(=O)O

Columns and labels:
ERp5 [1] = target: T1, ERp5 (Homo sapiens, UniProt Q15084); test: Maleimide-polyethylene glycol-2-biotin (MPB) binding; settings: 150 μM inhibitor, FIG. 2c, FIG. 8
T1 construct: recombinant His-tagged full-length ERp5, ERp72 and PDI domain fragments; His; made in house; host or cells: Escherichia coli Origami B (DE3), pET-15b
T1 sequence (Q15084 20-440): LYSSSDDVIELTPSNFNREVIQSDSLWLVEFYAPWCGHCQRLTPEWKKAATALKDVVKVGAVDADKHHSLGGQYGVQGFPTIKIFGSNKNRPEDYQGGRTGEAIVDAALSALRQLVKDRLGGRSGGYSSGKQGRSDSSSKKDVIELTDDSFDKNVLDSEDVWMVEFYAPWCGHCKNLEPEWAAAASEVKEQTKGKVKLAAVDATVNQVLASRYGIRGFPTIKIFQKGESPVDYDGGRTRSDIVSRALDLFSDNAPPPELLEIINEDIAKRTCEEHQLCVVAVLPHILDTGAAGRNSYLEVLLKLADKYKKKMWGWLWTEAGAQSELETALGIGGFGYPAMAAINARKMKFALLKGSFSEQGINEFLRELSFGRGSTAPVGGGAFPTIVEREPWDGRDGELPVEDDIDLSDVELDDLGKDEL
Method: (§1) Maleimide-Polyethanol glycol-2-Biotin (MPB) binding experiments were performed in a reaction volume of 37.5 μL with 5 μM of thiol isomerase or bovine serum albumin (BSA) in Tris-buffered saline (TBS), in the presence and absence of 1 mM of N-ethylmaleimide (NEM) or bacitracin, and 150 μM of the mentioned other inhibitors. The reaction mixture was incubated at 37° C. for 1 hour. Subsequently, the reaction mixtures were incubated with 25 μM of MPB. The labeling was performed for 20 minutes at 25° C. A total of 12.5 μL of 4× Laemmli Sample Buffer with 5% β-mercaptoethanol was added to each of the samples, followed by heating at 95° C. for 10 minutes. From each sample, 10 μL was loaded on a 12% SDS-PAGE gel, followed by transfer on a nitrocellulose membrane. After blocking the membrane with TBS-T containing 5% BSA for one hour, the membrane was incubated with a 1:2000 dilution of Cy5-tagged Streptavidin for an hour in the dark. Detection of the immunoblots was performed using ImageQuant LAS 4000 and analysis was performed using ImageQuant TL software.

ERp57 [2] = target: T2, ERp57 (Homo sapiens, UniProt P30101); test: as above; settings: 150 μM inhibitor, FIG. 2c, FIG. 8
T2 construct: FLAG; made in house; host or cells: Escherichia coli Origami B (DE3), pET-15b
T2 sequence (P30101 25-505): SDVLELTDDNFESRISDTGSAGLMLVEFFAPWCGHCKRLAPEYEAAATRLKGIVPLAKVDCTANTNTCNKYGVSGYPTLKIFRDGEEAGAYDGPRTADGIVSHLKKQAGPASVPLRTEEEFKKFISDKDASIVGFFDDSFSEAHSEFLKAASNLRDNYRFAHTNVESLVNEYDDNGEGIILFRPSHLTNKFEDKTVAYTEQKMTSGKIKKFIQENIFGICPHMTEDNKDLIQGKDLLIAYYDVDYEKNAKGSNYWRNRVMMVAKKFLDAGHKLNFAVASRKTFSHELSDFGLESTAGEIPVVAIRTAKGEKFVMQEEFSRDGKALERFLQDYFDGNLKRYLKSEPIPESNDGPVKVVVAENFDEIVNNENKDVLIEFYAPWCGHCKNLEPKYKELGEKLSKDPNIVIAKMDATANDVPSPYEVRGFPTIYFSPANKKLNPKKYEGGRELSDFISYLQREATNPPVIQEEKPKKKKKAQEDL
Method: as §1

thioredoxin [3] = target: T3, thioredoxin (Homo sapiens, UniProt P10599); test: as above; settings: 150 μM inhibitor, FIG. 2c, FIG. 8
T3 sequence (P10599 1-105): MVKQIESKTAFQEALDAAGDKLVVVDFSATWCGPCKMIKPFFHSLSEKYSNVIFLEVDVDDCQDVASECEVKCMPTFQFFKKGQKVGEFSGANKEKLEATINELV
Method: as §1

thrombus formation = settings: literature; cited from earlier work
ERp5 [4] = target: T1, ERp5; test: Insulin reductase assay, thiol isomerase selectivity; type: biochemical; settings: 10-fold IC50, FIG. 2
Method: (§2) The thiol isomerase-catalyzed reduction of insulin was assayed by measuring the increase in turbidity as detected at an optical density (OD) of 650 nm using a Spectramax M3 (Molecular Devices, Sunnyvale, Calif.). The validation assay consisted of 175 nM of PDI in a solution containing 100 mM potassium phosphate (pH 7.4) containing 0.2 mM bovine insulin, 2 mM EDTA, and 0.3 mM DTT (all purchased from Sigma Aldrich, St. Louis, Mo.), inhibitors were used at the concentrations indicated. The reaction was performed at 25° C. for one hour and thirty minutes. For assays of thiol isomerase selectivity, 11 nM PDI, ERp57 or Thioredoxin, or 33 nM ERpS were assayed in similar buffer conditions as described above and inhibitors were used at the indicated concentration. The reaction was performed at 37° C. for forty-five minutes. For assays of isolated domains studies, 400 nM protein was used, except for a, a′ and ab, in which 800 nM protein was used. The assay was performed in similar buffer conditions as described above. Bepristat 2a and N-(2,4-Dimethoxyphenyl)-N-(1-oxo-2-propyn-1-yl)-2-(2-thienyl)glycyl-glycine ethyl ester (PACMA-31) were used at a final concentration of 15 μM in these studies.

ERp57 [5] = target: T2, ERp57; test: as above; type: biochemical; settings: FIG. 2
Method: as §2

thioredoxin [6] = target: T3, thioredoxin; test: as above; type: biochemical; settings: 10-fold IC50, FIG. 2
Method: as §2

PDI [7] = target: T4, PDI (Homo sapiens, UniProt P07237); test: Di-eosin-GSSG disulfide reductase assay; type: biochemical; settings: for change of apparent KM in the di-eosin-GSSG assay of PDI reductase activity / change of apparent kcat in the di-eosin-GSSG assay of PDI reductase activity: FIG. 6d
T4 construct: FLAG; made in house; host or cells: Escherichia coli Origami B (DE3), pET-15b
Method: (§3) The probe di-eosin glutathione disulfide, di-eosin-GSSG, was prepared as previously described in Raturi, A., Vacratsis, P. O., Seslija, D., Lee, L. & Mutus, B., Biochem J 391, 351-357 (2005). Reductase activity of purified thiol isomerases and PDI domains was monitored in a 96-well fluorescence plate format. PDI, AGHA-PDI, ERpS, ERp57, ERp72 and PDI domains were assayed at 50 nM in the presence or absence of the indicated small molecules, peptides or cathepsin G. The assay included 100 mM potassium phosphate (pH 7.4) containing 2 mM EDTA, 5 μM DTT and 150 nM of the di-eosin GSSG probe. The increase in fluorescence was determined for 20 minutes by excitation at 520 nm and emission at 550 nm in a Synergy Biotek 4. The reduction of 150 nM di-eosin-GSSG by 5 μM DTT in the presence or absence of mentioned small molecules, peptides or proteins served as a negative control.
Michaelis Menten analysis was assayed using PDI at 20 nM and small molecules, peptides or cathepsin G at concentrations causing maximal augmentation under similar buffer conditions as described above. 8-point response curves were generated using a range of different di-eosin-GSSG concentrations (50-5000 nM). Enzyme kinetics analysis was performed using Graphpad Prism 5.0.

full-length PDI = target: T5, full-length PDI (Homo sapiens, UniProt P07237); test: Small-angle X-ray scattering (SAXS); settings: PDI complexed with compound; full-length oxidized PDI 40.0 Å, FIG. 5d
T5 construct: FLAG; made in house; host or cells: Escherichia coli Origami B (DE3), pET-15b
Method: Further purification of full-length PDI was achieved by gel filtration. PDI (1.5, 3.0 and 4.5 mg/mL) was dialyzed against 20 mM Tris, 150 mM NaCl, 5% glycerol (pH: 8.0) containing 0.5 mM bepristat 1b or 2b or DMSO control at 4° C. overnight. Evaluation by SAXS was performed on the SIBYLS beamline in the Advanced Light Source using a high throughput data collection method.

ERp5 [8] = target: T1, ERp5; test: Di-eosin-GSSG disulfide reductase assay; type: biochemical
Method: as §3

ERp72 = target: T6, ERp72 (Homo sapiens, UniProt P13667); test: Di-eosin-GSSG disulfide reductase assay; type: biochemical
T6 construct: recombinant His-tagged full-length ERp5, ERp72 and PDI domain fragments; His; made in house; host or cells: Escherichia coli Origami B (DE3), pET-15b
T6 sequence (P13667 21-645): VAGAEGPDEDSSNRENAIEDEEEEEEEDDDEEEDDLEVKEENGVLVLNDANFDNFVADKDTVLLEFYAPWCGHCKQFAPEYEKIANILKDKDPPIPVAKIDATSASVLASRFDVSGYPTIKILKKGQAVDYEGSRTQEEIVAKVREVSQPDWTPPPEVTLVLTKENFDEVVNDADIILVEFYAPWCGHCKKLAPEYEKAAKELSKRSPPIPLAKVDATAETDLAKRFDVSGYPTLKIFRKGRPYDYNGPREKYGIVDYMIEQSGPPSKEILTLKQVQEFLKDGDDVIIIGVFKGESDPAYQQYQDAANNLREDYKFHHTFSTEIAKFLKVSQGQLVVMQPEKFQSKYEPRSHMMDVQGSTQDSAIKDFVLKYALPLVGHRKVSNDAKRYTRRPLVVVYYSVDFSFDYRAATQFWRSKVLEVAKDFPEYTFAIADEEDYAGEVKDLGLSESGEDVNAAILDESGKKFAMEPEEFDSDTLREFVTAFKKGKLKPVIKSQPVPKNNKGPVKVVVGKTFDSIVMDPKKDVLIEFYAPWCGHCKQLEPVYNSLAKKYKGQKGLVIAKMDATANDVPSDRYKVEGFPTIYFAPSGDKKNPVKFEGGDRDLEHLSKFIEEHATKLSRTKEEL
Method: as §3

ERp57 [9] = target: T2, ERp57; test: Di-eosin-GSSG disulfide reductase assay; type: biochemical
Method: as §3

PDI [10] = target: T4, PDI; settings: cited from earlier work

T4 sequence (P07237 18-508): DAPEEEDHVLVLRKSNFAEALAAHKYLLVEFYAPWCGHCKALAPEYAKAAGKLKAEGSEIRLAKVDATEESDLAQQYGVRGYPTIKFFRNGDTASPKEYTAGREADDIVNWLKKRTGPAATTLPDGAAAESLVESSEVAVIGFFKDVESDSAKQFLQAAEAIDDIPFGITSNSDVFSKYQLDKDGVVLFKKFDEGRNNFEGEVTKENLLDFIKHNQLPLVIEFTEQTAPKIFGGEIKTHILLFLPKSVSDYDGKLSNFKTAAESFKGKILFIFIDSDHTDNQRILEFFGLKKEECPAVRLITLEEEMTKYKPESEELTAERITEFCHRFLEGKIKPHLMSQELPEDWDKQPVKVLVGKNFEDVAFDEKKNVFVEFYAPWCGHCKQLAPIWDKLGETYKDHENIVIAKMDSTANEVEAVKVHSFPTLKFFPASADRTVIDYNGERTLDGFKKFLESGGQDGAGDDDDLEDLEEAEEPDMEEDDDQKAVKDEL
T5 sequence (P07237 18-508): as above

Molecule | cleavage of di-eosin-GSSG probe by PDI (reductase activity at catalytic cysteines) (PDI [7]) | change of apparent KM in the di-eosin-GSSG assay of PDI reductase activity (PDI [7]) | change of apparent kcat in the di-eosin-GSSG assay of PDI reductase activity (PDI [7]) | cleavage of di-eosin-GSSG by ERp5 (catalytic activity) (ERp5 [8]) | cleavage of di-eosin-GSSG by ERp72 (catalytic activity) (ERp72) | cleavage of di-eosin-GSSG by ERp57 (catalytic activity) (ERp57 [9]) | other results
CC[C@H](C)[C@H](N)C1=N[C@H](C(=O)N[C@@H](CC(C)C)C(=O)N[C@H](CCC(=O)O)C(=O)N[C@H](C(=O)N[C@H]2CCCCNC(=O)[C@H](CC(N)=O)NC(=O)[C@@H](CC(=O)O)NC(=O)[C@H](Cc3cnc[nH]3)NC(=O)[C@@H](Cc3ccccc3)NC(=O)[C@H]([C@@H](C)CC)NC(=O)[C@@H](CCCN)NC2=O)[C@@H](C)CC)CS1 [bacitracin] ({Ileψ(thiazoline)Cys}-L[dE]IK[dOrn]I[dF]H[dD]N; lactam 4-C) | blocked PDI-mediated cleavage of di-eosin-GSSG |  |  |  |  |  | reaction of MPB with the catalytic cysteines of ERp5 (ERp5 [1]): interfered with the reaction of maleimide-polyethylene glycol-2-biotin (MPB); reaction of MPB with the catalytic cysteines of ERp57 (ERp57 [2]): interfered with the reaction of maleimide-polyethylene glycol-2-biotin (MPB); reaction of MPB with the catalytic cysteines of thioredoxin (thioredoxin [3]): interfered with the reaction of maleimide-polyethylene glycol-2-biotin (MPB); thrombus formation in vivo (thrombus formation): inhibits thrombus formation in vivo; inhibition of reductase activity of ERp5 (ERp5 [4]): showed activity against all thiol isomerases tested; inhibition of reductase activity of ERp57 (ERp57 [5]): showed activity against all thiol isomerases tested; inhibition of reductase activity of thioredoxin (thioredoxin [6]): showed activity against all thiol isomerases tested
CCOC(=O)c1c(CNCCN(CC)CC)n(-c2ccccc2)c2cc(Br)c(O)cc12 [bepristat 2b] |  |  |  |  |  |  | gyration radius (Rg) of PDI (full-length PDI): 35.9 Å
C[C@H](N)C(=O)NCC(=O)N[C@H]1CSSC[C@@H](C(=O)O)NC(=O)[C@H](CO)NC(=O)[C@H]([C@@H](C)O)NC(=O)[C@H](Cc2ccccc2)NC(=O)[C@H]([C@@H](C)O)NC(=O)[C@H](CCCCN)NC(=O)[C@H](Cc2c[nH]c3ccccc23)NC(=O)[C@H](Cc2ccccc2)NC(=O)[C@H](Cc2ccccc2)NC(=O)[C@H](CC(N)=O)NC(=O)[C@H](CCCCN)NC1=O [somatostatin, reference compound] |  | decreased the apparent KM |  |  |  |  | 
cathepsin G: a protein substrate of PDI | elicits enhanced reductase activity | decreased the apparent KM | None of them altered the apparent kcat | inhibited the catalytic activity of ERp5 and ERp57 to varying degrees | augmented the catalytic activity of ERp72 | inhibited the catalytic activity of ERp5 and ERp57 to varying degrees | 
mastoparan [reference compound] | enhanced the ability of PDI to cleave di-eosin-GSSG in a dose-dependent manner | decreased the apparent KM | None of them altered the apparent kcat | inhibited the catalytic activity of ERp5 and ERp57 to varying degrees | augmented the catalytic activity of ERp72 | inhibited the catalytic activity of ERp5 and ERp57 to varying degrees | PDI activity in RNase refolding assay (PDI [10]): inhibits PDI activity in an RNase refolding assay
